The text below walks through data of patent publication US11331364B2, “Use for JNK inhibitor molecules for treatment of various diseases” (Xigen Inflammation Ltd., priority 2014, dated 2022).

The structures appear in SMILES notation. Square brackets hold non-standard residues; d marks the D form. Peptide text beside a SMILES is read from it.

One experiment concerns the target T1, hJNK1 (Homo sapiens, UniProt P45983).
T1 construct: His; purchased Upstate 14-327
Description: AlphaScreen assay, inhibition of JNK1 phosphorylation of c-Jun substrate. The format is biochemical. Particulars: in comparison to L-TAT-IB1; FIG. 4 (JNK1, JNK2, JNK3 AlphaScreen). On the procedure:
In the following a standard operating procedure will be set forth describing how the Inhibitory efficacy of JNK inhibitors according to the present invention was measured. The method allows to measure in vitro, in a non radioactive standardized assay, the ability of a candidate compound to decrease the phosphorylation of the c-Jun specific substrate by JNK. Moreover, it will be illustrated how to determine the inhibitory effect (IC50) and the Ki of a chosen compound for JNK. […] And a person skilled in the art will certainly understand how to adapt the below methods for his specific purposes and needs.
AlphaScreen Reagent and Plate: • His-JNK1 (ref 14-327, Upstate, 10 μg in 100 μl: concentration: 2.2 μM) 5 nM final • His-JNK2 (ref 14-329, Upstate, 10 μg in 100 μl: concentration: 2 μM) 5 nM final • His-JNK3 (ref 14-501, Upstate, 10 μg in 100 μl: concentration: 1.88 μM) 5 nM final • Anti-Phospho-cJun (ref 06-828, Upstate, lot DAM1503356, concentration: 44.5 μM) 10 nM final • Biotin-cJun (29-67): • sequence: Biotin—[…] […]
The bioluminescent energy transfer was read on the Fusion Alpha Plate reader (Perkin Elmer). […]
In general terms: In Alpha technology, singlet oxygen from a donor bead excites a nearby acceptor bead.

The next experiment has as its target hJNK2 (Homo sapiens, UniProt P45984). In words: hJNK2 | IC50. Particulars: read-out: hJNK2 | IC50. In short, it runs like this: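 JNK inhibitors tested as fusion proteins of a JNK-inhibitory (poly)peptide and a transporter sequence; IC50 reported in the nM range with SEM and number of experiments.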
A further experiment deals with rat whole blood. In words: PMA+ionomycin-induced IL-2 release in rat whole blood. The format is cell-based. Particulars: 10 μM; three activator concentrations, 4 h. On the procedure: FIG. 17 Dose dependent inhibition of IL-2 release in rat whole blood stimulated with PMA+ionomycin. JNK inhibitor with SEQ ID NO: 172 was added at three different concentrations, namely 1, 3 and 10 μM 1 h before stimulation with PMA+ionomycin. Three doses of activators were added (25/500 ng/mL, 50/750 ng/mL and 50/1000 ng/mL) for 4 h. IL-2 release was assessed in supernatant.
Whole blood is collected from anesthetized rat or human healthy volunteers using a venipuncture connected to a pre-labeled vacuum tube containing sodium citrate. Tubes are gently mixed by inversion 7-8 times; and are then kept at RT until stimulation. JNK inhibitor of SEQ ID NO: 172 is prepared 6 times concentrated in PBS, and 30 μl/well of mix is added into 96-well plate. Whole blood is diluted by 1:2 in PBS and 120 μl of diluted blood is added in each well where either PBS alone or JNK inhibitor of SEQ ID NO: 172 has been previously added. Whole blood is incubated at 37° C.; 85 rpm (Stuart Orbital incubator SI500) for 60 min. Activators (LPS) are the prepared, 30 μl/well of LPS, 6 times concentrated. […] Cytokine (IL-6, IL-2, IFNγ and TNFα) were then measured using standard Elisa kits (e.g. from R&D Systems: DuoSet Elisas; or from BD Biosciences: BD Opteia Set Elisa). Results are expressed as pg/ml of supernatant of the measured cytokine. […]

hJNK2, sequence (P45984 whole entry, looked up, the tested form may be a part): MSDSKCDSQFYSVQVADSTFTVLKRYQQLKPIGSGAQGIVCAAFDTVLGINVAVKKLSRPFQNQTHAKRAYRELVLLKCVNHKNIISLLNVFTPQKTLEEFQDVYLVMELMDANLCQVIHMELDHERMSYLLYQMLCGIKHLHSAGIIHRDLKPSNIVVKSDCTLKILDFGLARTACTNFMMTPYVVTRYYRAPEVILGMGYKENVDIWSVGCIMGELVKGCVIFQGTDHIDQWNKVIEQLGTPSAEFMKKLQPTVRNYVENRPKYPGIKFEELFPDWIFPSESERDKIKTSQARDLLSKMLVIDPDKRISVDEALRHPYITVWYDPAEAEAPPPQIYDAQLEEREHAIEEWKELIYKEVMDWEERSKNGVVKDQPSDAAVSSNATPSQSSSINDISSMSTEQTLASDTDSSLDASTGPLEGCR
T1 sequence (P45983 1-384 isoform P45983-2): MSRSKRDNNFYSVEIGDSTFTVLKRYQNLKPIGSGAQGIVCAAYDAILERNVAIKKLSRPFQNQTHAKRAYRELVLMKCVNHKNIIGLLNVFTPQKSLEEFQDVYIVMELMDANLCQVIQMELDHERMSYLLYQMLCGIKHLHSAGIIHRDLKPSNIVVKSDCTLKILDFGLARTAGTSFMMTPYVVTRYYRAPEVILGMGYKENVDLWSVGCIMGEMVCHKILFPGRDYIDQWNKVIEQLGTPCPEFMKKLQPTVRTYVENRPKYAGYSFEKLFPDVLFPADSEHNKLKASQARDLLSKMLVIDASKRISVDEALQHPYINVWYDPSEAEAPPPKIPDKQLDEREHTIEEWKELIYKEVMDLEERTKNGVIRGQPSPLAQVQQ

Turning to `CC(C)C[C@@H](NC(=O)[C@@H](Cc1ccccc1)NC(=O)[C@H]1CCCN1C(=O)[C@@H](CCC(N)=O)NC(=O)[C@H](NC(=O)[C@H]1CCCN1C(=O)[C@@H](CCCNC(=N)N)NC(=O)[C@@H](CO)NC(=O)[C@@H](CCC(N)=O)NC(=O)[C@H](N)CC(=O)O)C(C)C)C(=O)N[C@H](CC(N)=O)C(=O)N[C@H](CC(C)C)C(=O)N[C@@H](C(=O)N[C@@H](C(=O)N1CCC[C@@H]1C(=O)N[C@H](CCCNC(=N)N)C(=O)N[C@H](CCCCN)C(=O)N1CCC[C@@H]1C(=O)N[C@H](CCCNC(=N)N)C(=O)N1CCC[C@@H]1C(=O)N1CCC[C@@H]1C(=O)N[C@H](CCCNC(=N)N)C(=O)N[C@H](CCCNC(=N)N)C(=O)N[C@H](CCCNC(=N)N)C(=O)N[C@H](CCC(N)=O)C(=O)N[C@H](CCCNC(=N)N)C(=O)N[C@H](CCCNC(=N)N)C(=O)N[C@H](CCCCN)C(=O)N[C@H](CCCCN)C(=O)N[C@H](CCCNC(=N)N)C(=O)NCC(N)=O)[C@H](C)O)[C@H](C)O` [SEQ ID NO: 197, dqsrpvqpflnlttprkprpprrrqrrkkrg, reference compound] (H-[dD][dQ][dS][dR][dP][dV][dQ][dP][dF][dL][dN][dL][dT][dT][dP][dR][dK][dP][dR][dP][dP][dR][dR][dR][dQ][dR][dR][dK][dK][dR]G-NH2), the inhibitory capacity entry against hJNK1 was “significant decrease in inhibitory capacity”.
The IC50 is the concentration that gives 50% inhibition. As for `CC(C)C[C@H](NC(=O)[C@H](CC(N)=O)NC(=O)[C@H](CC(C)C)NC(=O)[C@@H](NC(=O)[C@@H](C)NC(=O)[C@@H]1CCCN1C(=O)[C@H](CCCNC(=N)N)NC(=O)[C@@H](CCCCN)NC(=O)[C@@H]1CCCN1C(=O)[C@H](CCCNC(=N)N)NC(=O)[C@@H](CCCNC(=N)N)NC(=O)[C@H](CCCNC(=N)N)NC(=O)[C@H](CCCNC(=N)N)NC(=O)[C@H](CCC(N)=O)NC(=O)[C@@H](CCCNC(=N)N)NC(=O)[C@H](CCCNC(=N)N)NC(=O)[C@H](CCCCN)NC(=O)[C@H](CCCCN)NC(=O)[C@H](N)CCCNC(=N)N)[C@@H](C)O)C(=O)N[C@H](Cc1ccccc1)C(N)=O` [SEQ ID NO: 172, rKKRrQRRrRPkRPaTLNLf] (H-[dR]KKR[dR]QRR[dR]RP[dK]RP[dA]TLNL[dF]-NH2; N-terminus assumed), the IC50 at hJNK2 came out at 54.7 nM. The “PMA-iono-induced IL-2 release” value in the experiment on rat whole blood was “did efficiently reduce”.
